This is an account of results in a melting point compilation (Tetko et al.).

Usually melting point stands for the temperature of the solid-liquid transition.

Take `CCn1nc(C)c(C(=O)O)c1C`: the melting point is 139 to 141 °C.

With `O=C(CCCl)Nc1ccc(N2CCOCC2)cc1`, the melting point is 192 to 194 °C.

The compound `Cc1cc(Br)ccc1SCC(=O)O` returned a melting point of 125 to 127 °C.

In the case of `CC1(c2cccc3ccccc23)NC(=O)NC1=O` (configuration not stated), the melting point fell in the range of 105 to 107 °C.

`CNC(=O)c1ccc(Cl)nn1`: the melting point is 170 to 172 °C.

Regarding `Cc1nn(-c2ccc(Br)cc2)c(C)c1C(=O)O`, the melting point is 231 to 233 °C.

Consider `COc1ccc(CN)cc1NC(C)=O`, for which the melting point was 115 to 117 °C.

In turn, `N#Cc1cc(C(F)(F)F)ccc1S(=O)(=O)Cl` came in with a melting point of 87 to 89 °C.

Consider `CCc1nnc(-c2ccc(N)cc2)o1`, for which the melting point was in the range of 137 to 139 °C.

`N#Cc1ccc(S)c(Cl)c1` returned a melting point of 81 to 83 °C.

In the case of `O=C(O)c1occc1CN1CCOCC1`, the melting point fell in the range of 184 to 186 °C.

As to `CCOc1ccc(C(=O)O)cc1C`, the melting point lay within 198 to 200 °C.

As for `COC(=O)c1ccc2c(c1)CCCN2`, the melting point lay in the range of 71 to 73 °C.

In turn, `O=C(NC1CCN(Cc2ccccc2)CC1)c1ccco1` returned a melting point of 158 to 160 °C.

For the compound `CCOc1ccccc1-n1nnnc1SCC(=O)O`, the melting point lay in the range of 145 to 147 °C.

`COCCCNc1c(N)n(CC(C)C)c(=O)[nH]c1=O` returned a melting point of 179 to 181 °C.

For `O=C1NCCSC1Cc1ccccc1` (configuration not stated), the melting point was 107 to 109 °C.

For `O=C(O)CCc1nc2ccccc2[nH]c1=O`, the melting point was in the range of 263 to 265 °C.

With `O=C(CO)Nc1ccc(Oc2ccccc2)cc1`, the melting point is 149 to 151 °C.

In turn, `Cc1c(Br)ccc(C(=O)O)c1N` yielded a melting point of 221 to 223 °C.

In the case of `CN(C)c1ncnc2cc(C(=O)O)ccc12`, the melting point lay in the range of 323 to 325 °C.

Compound `Cn1c(=O)n(C)c2cc(C(=O)O)c(Br)cc21` returned a melting point of 289 to 291 °C.

On to `CN(C(=O)c1ccc(Cl)cc1)c1ccc(N)cc1`, for which the melting point was in the range of 152 to 154 °C.

Turning to `O=C(O)c1cc(Br)cc(Cl)c1O`, the melting point lay in the range of 207 to 209 °C.

`O=C(O)C1CC(=O)N(C2CCS(=O)(=O)C2)C1` (configuration not stated): the melting point was 255 to 257 °C.

`COc1ccc(Cl)cc1NC(=O)CCl` returned a melting point of 101 to 103 °C.

Compound `O=C1CC(C(F)(F)F)N(C(=O)CCl)c2ccccc2N1` (configuration not stated) had a melting point of 159 to 161 °C.

`Nc1nnc(CCCc2ccccc2)o1`: the melting point lay in the range of 165 to 167 °C.

Consider `NC(Cc1ccccn1)=NO`, for which the melting point was 105 to 107 °C.

Regarding `CCc1ccccc1OCC(=O)O`, the melting point is 123 to 127 °C.

In the case of `Brc1ncnc2ccccc12`, the melting point lay within 94 to 96 °C.

`O=C(O)Cc1coc2cc(O)ccc12` had a melting point of 127 to 129 °C.

For the compound `O=C(O)c1ccc(Oc2ccccc2[N+](=O)[O-])cc1`, the melting point is 196 to 198 °C.

`Cc1cc(O)nc(C(C)Cl)n1` (configuration not stated) came in with a melting point of 132 to 134 °C.

Regarding `Cc1cc(O)cc(=O)o1`, the melting point was in the range of 188 to 190 °C.

`O=C1C=CC(=O)N1c1ccc(F)c(Cl)c1` showed a melting point of 159 to 161 °C.

With `NC(=O)c1ccc(N)cc1N1CCCCC1`, the melting point was in the range of 142 to 144 °C.

Take `O=C(O)C1(N2CCOCC2)CCC1`: the melting point lay in the range of 209 to 211 °C.

The compound `Nc1nc2cc(Cl)ccc2n1CCCn1ccnc1` showed a melting point of 229 to 231 °C.

Consider `N#CC=Cc1cccnc1`, for which the melting point is 104 to 106 °C.

Consider `OC1CCN(c2cnnc3ccccc23)CC1`, for which the melting point was in the range of 84 to 86 °C.

`CC(=O)NCc1ccc(C(=O)O)cc1` had a melting point of 188 to 190 °C.

Turning to `COc1cc(CCl)ccc1SC`, the melting point is 78 to 80 °C.

`O=c1[nH]nc2cncc(Cl)n12`: the melting point lay within 169 to 171 °C.

The compound `CC(C)(C)OC(=O)N1CCCC(CC#N)C1` (configuration not stated) came in with a melting point of 48 to 50 °C.

In the case of `CC(C)(C)OC(=O)c1nnsc1N`, the melting point lay in the range of 134 to 136 °C.

In turn, `Nc1nonc1I` yielded a melting point of 90 to 92 °C.

As to `CCn1c(S)nnc1-c1ccc(C(C)(C)C)cc1`, the melting point is 130 to 132 °C.

Regarding `Cc1c(C(=O)O)oc2ccc(Br)cc12`, the melting point lay within 249 to 251 °C.

As to `NS(=O)(=O)c1cc(Br)cnc1Cl`, the melting point was in the range of 119 to 121 °C.

On to `NCCS(=O)(=O)c1ccc(Br)cc1`, for which the melting point fell in the range of 87 to 89 °C.

In the case of `Cn1c(S)nnc1N1CCOCC1`, the melting point was in the range of 194 to 196 °C.

`COC(=O)Nc1ccc(O)cc1`: the melting point is 115 to 117 °C.

`Cc1cc(C(C)(C)C)cc(C)c1S(=O)(=O)N1CCNCC1` registered a melting point of 124 to 126 °C.

Compound `CCc1c(Cl)nc(-c2ccccc2)nc1Cl` yielded a melting point of 73 to 75 °C.

`CC1(C)OC(=O)c2c1ccnc2Cl` yielded a melting point of 158 to 160 °C.

`Cn1c(Cl)cnc1CO`: the melting point was 110 to 112 °C.

Turning to `COc1ccc(F)cc1C(C)N` (configuration not stated), the melting point lay in the range of 74 to 76 °C.

As for `O=C(O)c1ccc(Oc2ccc(Br)cc2)c(F)c1`, the melting point lay within 251 to 253 °C.

`CCOC(=O)c1nc(NCCc2ccccc2)sc1C` had a melting point of 109 to 111 °C.

With `NC(=O)CNC(=O)c1ccc(N)cc1`, the melting point was 216 to 218 °C.

Compound `CC(C)(C#N)NS(C)(=O)=O` registered a melting point of 61 to 63 °C.

`O=C(O)c1cc(F)ccc1-c1ccccc1` came in with a melting point of 117 to 119 °C.

The compound `O=C(O)C1CCCCS1(=O)=O` (configuration not stated) showed a melting point of 166 to 168 °C.

The compound `Cn1cc(-c2ccc(Cl)nn2)cn1` had a melting point of 188 to 190 °C.

The compound `Cc1ccccc1CCNC(=O)CCl` showed a melting point of 68 to 70 °C.

`CC(C)NC(=O)Nc1cccc(C(=O)O)c1` registered a melting point of 239 to 241 °C.

`Nc1ccc(N2C(=O)c3ccccc3C2=O)c(Cl)c1` displayed a melting point of 204 to 206 °C.

Turning to `O=C(O)CNS(=O)(=O)c1ccc(F)cc1`, the melting point was 146 to 148 °C.

`O=C1NCCc2ccc(S(=O)(=O)Cl)cc21` returned a melting point of 188 to 190 °C.

In the case of `COC(=O)c1cc2cccc(Br)c2o1`, the melting point is 76 to 78 °C.

In turn, `CCOC(=O)c1ccc2c(c1)CCCN2` returned a melting point of 79 to 81 °C.

Compound `Cc1nc(=NCC(=O)O)c2cc(-c3ccccc3)sc2[nH]1` came in with a melting point of 257 to 259 °C.

The compound `O=C(CCl)NCC1CCCc2ccccc21` (configuration not stated) came in with a melting point of 114 to 116 °C.

Compound `CC(N)c1ccc(-c2cncnc2)cc1` (configuration not stated) came in with a melting point of 47 to 49 °C.

With `O=S(=O)(c1ccc(F)cc1)N1CCNCC1`, the melting point fell in the range of 112 to 114 °C.

Take `COc1ccccc1NC(=O)CCCCC(=O)O`: the melting point lay in the range of 82 to 84 °C.

Consider `O=C1CCC(c2ccc(F)cc2)=NN1`, for which the melting point was in the range of 193 to 195 °C.

As to `C#Cc1nc2ccccc2n1C`, the melting point lay in the range of 82 to 84 °C.

Regarding `O=[N+]([O-])c1ccc(OC2CCNCC2)cc1`, the melting point was 97 to 99 °C.

Compound `O=C(O)CC1Sc2ccc(C(F)(F)F)cc2NC1=O` (configuration not stated) came in with a melting point of 236 to 238 °C.

With `CC(C)(C)Cc1nc2cc(N)ccc2o1`, the melting point fell in the range of 83 to 85 °C.

As to `O=C(CCCc1ccc(Br)cc1)c1ccccc1`, the melting point is 84 to 86 °C.

For the compound `COC(=O)c1c[nH]c(C2CC2)n1`, the melting point fell in the range of 119 to 121 °C.

Regarding `Cn1cnnc1-c1ccc(N)nc1`, the melting point was in the range of 249 to 251 °C.

Turning to `O=C(O)C1CCCCN1S(=O)(=O)c1cccs1` (configuration not stated), the melting point lay within 107 to 109 °C.

As for `CNS(=O)(=O)c1ccc2c(c1)NCC2`, the melting point fell in the range of 86 to 88 °C.

As to `Nc1ccc2nc(N3CCOCC3)sc2c1`, the melting point was in the range of 166 to 168 °C.

Regarding `Cc1cc(=O)c(C(=O)O)nn1-c1cccc(Cl)c1`, the melting point lay within 223 to 225 °C.

`O=C(O)C1(c2cccc(Br)c2)CCOCC1` displayed a melting point of 152 to 154 °C.

Take `O=C(NC=C(Cl)Cl)c1ccc(F)cc1`: the melting point is 69 to 71 °C.

For the compound `Cc1cc2ncn(Cc3ccc(F)cc3)c2cc1C`, the melting point was in the range of 135 to 137 °C.

`NNC(=S)NCC(F)(F)F`: the melting point is 158 to 160 °C.

In the case of `O=C1COc2ccc(C(=O)/C=C/c3ccccc3)cc2N1`, the melting point lay within 228 to 230 °C.

The compound `O=Cc1ccc(-c2ccc(Cl)cc2[N+](=O)[O-])o1` yielded a melting point of 92 to 94 °C.

Take `CN1CCN(C(=O)c2ccc(C#N)cn2)CC1`: the melting point lay in the range of 83 to 85 °C.

`CC(C)COC(C)C(N)=NO` (configuration not stated) showed a melting point of 63 to 65 °C.

In the case of `O=C(NCc1ccco1)c1cccc(CCl)c1`, the melting point was 74 to 76 °C.

`Cc1cc(C)c(S(=O)(=O)Cl)cc1C(=O)O`: the melting point fell in the range of 189 to 191 °C.

On to `O=S(=O)(O)c1nc2ccc(Cl)cc2[nH]1`, for which the melting point lay within 329 to 331 °C.

`CC(=O)c1cccc(N2CCCC2=O)c1` showed a melting point of 90 to 95 °C.

Regarding `O=S(=O)(Cl)c1c(Cl)cc(F)cc1Br`, the melting point was in the range of 55 to 57 °C.

In turn, `C/C(=N/O)c1cnn(C)c1` came in with a melting point of 144 to 146 °C.

In turn, `O=C(O)CNCc1cccc(Br)c1` displayed a melting point of 213 to 215 °C.

On to `O=C(O)Cc1ccon1`, for which the melting point was in the range of 84 to 86 °C.

Compound `CC(=O)CCc1ccc(OCC(=O)O)cc1` yielded a melting point of 106 to 108 °C.

Compound `Cc1cc(C(=O)NCC(=O)O)ccc1[N+](=O)[O-]` yielded a melting point of 216 to 218 °C.

`NS(=O)(=O)c1ccc(O)c(C(=O)O)c1`: the melting point was 233 to 235 °C.

Compound `O=S1(=O)NC=Nc2ccccc21` registered a melting point of 222 to 224 °C.

For the compound `N#CCCNc1ccc2c(c1)OCCO2`, the melting point was 83 to 85 °C.

As for `Cc1cc(N)n(Cc2ccccn2)n1`, the melting point is 94 to 96 °C.

On to `CC(N)c1ccc(OCc2ccc(F)cc2)cc1` (configuration not stated), for which the melting point fell in the range of 52 to 54 °C.

`CC(c1ccccc1)n1c(S)nnc1-c1ccccc1` (configuration not stated) displayed a melting point of 201 to 203 °C.

As for `CC1CN(Cc2csc(N)n2)CC(C)O1` (configuration not stated), the melting point was 132 to 134 °C.

Consider `Cc1ccc(S(=O)(=O)N2CCCCC2C)cc1C(=O)O` (configuration not stated), for which the melting point fell in the range of 149 to 151 °C.

Compound `Cc1ccccc1-n1nc(-c2ccccc2)cc1N` came in with a melting point of 109 to 111 °C.

Consider `O=C(O)CSc1nc(-c2cccnc2)no1`, for which the melting point lay within 154 to 156 °C.

Consider `Cc1cc(C(=O)NC2CCCCC2)ccc1N`, for which the melting point fell in the range of 178 to 180 °C.

Turning to `O=S(=O)(Cl)C1c2ccccc2-c2ccccc21`, the melting point was 84 to 86 °C.

`ClCc1ncc(-c2ccc(Cl)cc2)o1` showed a melting point of 53 to 57 °C.

Regarding `O=C(O)c1cc(F)cc2nccnc12`, the melting point is 219 to 221 °C.

For the compound `COc1ccc(/C=C/C(=O)O)cc1F`, the melting point was in the range of 222 to 224 °C.
